Source: patent US11357779B2 (G1 Therapeutics, Inc., priority 2018, dated 2022)
Like-named read-outs stand apart in the source and are kept apart here.

Experiment: Plasma concentration versus time of Compound I and metabolite Compound III in patients dosed QD or BID with Form B of Compound II plus fulvestrant
Format: in vivo, human
Settings: human, plasma, oral; for concentration at 8 h: Day 1, 8.0 h; for concentration at 10 h: Day 1, 10.0 h; for concentration at 12 h: Day 1, 12.0 h; for concentration at 8 day: Day 8; for concentration at 15 day: Day 15; for concentration at 22 day: Day 22
Description: Patients were enrolled into 1 of 2 parallel, independently operating, dose-escalation dosing cohorts with Form B of Compound II administered continuously either once daily (QD) or twice daily (BID) with food with fixed-dose fulvestrant (intramuscularly every 14 days for the first three injections and then every 28 days). Pre- or perimenopausal patients also received goserelin for the duration of study treatment. A […] agonist was started at least 28 days before the first dose of Form B, and those patients who were taking another LHRH agonist were switched to goserelin on Day 1. Patients were split into […] cohorts providing once a day (QD) dosing of 200 mg, 300 mg, 400 mg, 500 mg, or 650 mg of Form B, or twice a day (BID) dosing of 100 mg, 150 mg, or 200 mg of Form B. The second dose in BID cohorts was not administered in the evening until at least 12 hours after the initial morning dose of Form B. The dosing cohorts for Form B of Compound II are provided in Table 1.
Blood samples were collected at the following time points relative to the morning dose of Form B at Day 1 and at Day 29: pre-dose (0 hour) and 1, 2, 3, 4, 6, 8, 10, 12 (prior to the evening dose in the BID cohorts), and 24 (prior to the next day's morning dose) hours after dosing. A 5-minute time window was allowed for samples collected between the predose and 3 hours after Form B dosing. A 15-minute window was allowed for samples collected between 4 to 12 hours after Form B dosing. A 1-hour window was allowed for the sample collected 24 hours after Form B dosing. Blood samples for Compound I PK trough levels were collected pre-dose at Day 8, Day 15, and Day 22 prior to the morning administration of Compound I. Plasma concentrations of Compound I and its metabolite, Compound III, were measured using validated methods.
Analysis of plasma concentration versus time data for calculation of standard pharmacokinetic (PK) parameters following oral administration was conducted using Phoenix WinNonlin version 6.3 using actual blood sampling times.

[1] = 100 mg, 100 mg BID of Form B, Mean, read-out: Compound III Concentration
[2] = 100 mg, 100 mg BID of Form B, Median, read-out: Compound III Concentration
[3] = 100 mg, Cohort 6, 100 mg BID of Form B, read-out: Trough Compound III Concentration, Median
[4] = 100 mg, Cohort 6, 100 mg BID of Form B, read-out: Trough Compound III Concentration, Min
[5] = 400 mg, Cohort 3, 400 mg QD of Form B, read-out: Trough Compound III Concentration, Max
[6] = 400 mg, Cohort 3, 400 mg QD of Form B, read-out: Trough Compound III Concentration, Mean
[7] = 400 mg, Cohort 3, 400 mg QD of Form B, read-out: Trough Compound III Concentration, Median
[8] = 500 mg, Cohort 4, 500 mg QD of Form B, read-out: Trough Compound III Concentration, Max
[9] = 500 mg, Cohort 4, 500 mg QD of Form B, read-out: Trough Compound III Concentration, Mean
[10] = 500 mg, Cohort 4, 500 mg QD of Form B, read-out: Trough Compound III Concentration, Median
[11] = 500 mg, Cohort 4, 500 mg QD of Form B, read-out: Trough Compound III Concentration, Min

O=C1NCC2(CCCCC2)n2c1cc1cnc(Nc3ccc(N4CCNCC4)cn3)nc12 [Compound III, 2′-((5-(piperazin-1-yl)pyridin-2-yl)amino)-7′,8′-dihydro-6′H-spiro[cyclohexane-1,9′-pyrazino[1′,2′:1,5]pyrrolo[2,3-d]pyrimidin]-6′-one]
concentration at 0 h (100 mg, 100 mg BID of Form B, Day 1, 0.0 h, Mean, read-out: Compound III Concentration): 0 ng/mL | concentration at 0 h (100 mg, 100 mg BID of Form B, Day 1, 0.0 h, Median, read-out: Compound III Concentration): 0 ng/mL | concentration at 1 h (100 mg, 100 mg BID of Form B, Day 1, 1.0 h, Mean, read-out: Compound III Concentration): 0.248 ng/mL | concentration at 1 h (100 mg, 100 mg BID of Form B, Day 1, 1.0 h, Median, read-out: Compound III Concentration): 0 ng/mL | concentration at 2 h (100 mg, 100 mg BID of Form B, Day 1, 2.0 h, Mean, read-out: Compound III Concentration): 1.04 ng/mL | concentration at 2 h (100 mg, 100 mg BID of Form B, Day 1, 2.0 h, Median, read-out: Compound III Concentration): 1 ng/mL | concentration at 3 h (100 mg, 100 mg BID of Form B, Day 1, 3.0 h, Mean, read-out: Compound III Concentration): 1.41 ng/mL | concentration at 3 h (100 mg, 100 mg BID of Form B, Day 1, 3.0 h, Median, read-out: Compound III Concentration): 1.42 ng/mL | concentration at 4 h (100 mg, 100 mg BID of Form B, Day 1, 4.0 h, Mean, read-out: Compound III Concentration): 1.25 ng/mL | concentration at 4 h (100 mg, 100 mg BID of Form B, Day 1, 4.0 h, Median, read-out: Compound III Concentration): 1.13 ng/mL | concentration at 6 h (100 mg, 100 mg BID of Form B, Day 1, 6.0 h, Mean, read-out: Compound III Concentration): 0.471 ng/mL | concentration at 6 h (100 mg, 100 mg BID of Form B, Day 1, 6.0 h, Median, read-out: Compound III Concentration): 0.382 ng/mL | concentration at 8 h [1]: 0.219 ng/mL | concentration at 8 h [2]: 0 ng/mL | concentration at 10 h [1]: 0 ng/mL | concentration at 10 h [2]: 0 ng/mL | concentration at 12 h [1]: 0.0917 ng/mL | concentration at 12 h [2]: 0 ng/mL | concentration at 8 day [3]: 0.481 ng/mL | concentration at 8 day [4]: 0 ng/mL | concentration at 15 day [3]: 0.895 ng/mL | concentration at 15 day [4]: 0 ng/mL | concentration at 22 day [3]: 0.403 ng/mL | concentration at 22 day [4]: 0 ng/mL | concentration at 0 h (150 mg, 150 mg BID of Form B, Day 1, 0.0 h, Median, read-out: Compound III Concentration): 0 ng/mL | concentration at 1 h (150 mg, 150 mg BID of Form B, Day 1, 1.0 h, Median, read-out: Compound III Concentration): 1.52 ng/mL | concentration at 8 day [5]: 0.702 ng/mL | concentration at 8 day [6]: 0.406 ng/mL | concentration at 8 day [7]: 0.515 ng/mL | concentration at 15 day [5]: 0.665 ng/mL | concentration at 15 day [6]: 0.435 ng/mL | concentration at 15 day [7]: 0.64 ng/mL | concentration at 22 day [5]: 0.935 ng/mL | concentration at 22 day [6]: 0.729 ng/mL | concentration at 22 day [7]: 0.736 ng/mL | concentration at 22 day (400 mg, Cohort 3, 400 mg QD of Form B, read-out: Trough Compound III Concentration, Min): 0.515 ng/mL | concentration at 8 day [8]: 1.98 ng/mL | concentration at 8 day [9]: 1.71 ng/mL | concentration at 8 day [10]: 1.62 ng/mL | concentration at 8 day [11]: 1.53 ng/mL | concentration at 15 day [8]: 2.66 ng/mL | concentration at 15 day [9]: 2.07 ng/mL | concentration at 15 day [10]: 2.15 ng/mL | concentration at 15 day [11]: 1.33 ng/mL | concentration at 22 day [8]: 2.11 ng/mL | concentration at 22 day [9]: 1.73 ng/mL | concentration at 22 day [10]: 1.58 ng/mL | concentration at 22 day [11]: 1.5 ng/mL | concentration at 0 h (500 mg, Cohort 4, 500 mg QD of Form B, Day 29, 0.0 h, read-out: Compound III Concentration, Mean): 1.76 ng/mL | concentration at 0 h (500 mg, Cohort 4, 500 mg QD of Form B, Day 29, 0.0 h, read-out: Compound III Concentration, Min): 1.41 ng/mL | concentration at 1 h (500 mg, Cohort 4, 500 mg QD of Form B, Day 29, 1.0 h, read-out: Compound III Concentration, Mean): 2.98 ng/mL | concentration at 1 h (500 mg, Cohort 4, 500 mg QD of Form B, Day 29, 1.0 h, read-out: Compound III Concentration, Min): 2.06 ng/mL | concentration at 2 h (500 mg, Cohort 4, 500 mg QD of Form B, Day 29, 2.0 h, read-out: Compound III Concentration, Mean): 4.39 ng/mL | concentration at 2 h (500 mg, Cohort 4, 500 mg QD of Form B, Day 29, 2.0 h, read-out: Compound III Concentration, Min): 3.61 ng/mL | concentration at 3 h (500 mg, Cohort 4, 500 mg QD of Form B, Day 29, 3.0 h, read-out: Compound III Concentration, Mean): 5.9 ng/mL | concentration at 3 h (500 mg, Cohort 4, 500 mg QD of Form B, Day 29, 3.0 h, read-out: Compound III Concentration, Min): 4.66 ng/mL | concentration at 4 h (500 mg, Cohort 4, 500 mg QD of Form B, Day 29, 4.0 h, read-out: Compound III Concentration, Mean): 5.77 ng/mL | concentration at 4 h (500 mg, Cohort 4, 500 mg QD of Form B, Day 29, 4.0 h, read-out: Compound III Concentration, Min): 4.04 ng/mL | concentration at 6 h (500 mg, Cohort 4, 500 mg QD of Form B, Day 29, 6.0 h, read-out: Compound III Concentration, Mean): 4.18 ng/mL | concentration at 6 h (500 mg, Cohort 4, 500 mg QD of Form B, Day 29, 6.0 h, read-out: Compound III Concentration, Min): 3.55 ng/mL
